From patent US11026940B2, “Compositions for the mobilization, homing, expansion and differentiation of stem cells and methods of using the same” (Ampio Pharmaceuticals, Inc., priority 2013, dated 2021)
“And” between values parts separate entries of the source, which are not always exact repeats. Equal entries are not always repeated.

Columns and labels:
Format in all cases: cell-based, human
[1] = test system: Collagen 2A1; assay: Stem cell chondrogenesis, real time PCR gene expression: Collagen 2A1; settings: for Cp Coll / Mean regulation: Collagen 2A1; for Cp Coll / Mean regulation / Mean ΔCp / ΔCp: Day 22; for Mean regulation: vs saline; for Mean ΔCp / ΔCp: Collagen 2A1 vs GAPDH; for regulation, Collagen 2A1 / Mean regulation, Collagen 2A1: fold regulation vs saline; for regulation, Collagen 2A1 / ΔCp, Collagen 2A1 / 2^-ΔΔCp vs saline, Collagen 2A1 / ΔΔCp vs saline, Collagen 2A1: single replicate well; for Mean regulation, Collagen 2A1 / Mean ΔCp, Collagen 2A1: triplicate wells; for ΔCp, Collagen 2A1: human bone marrow MSC, chondrogenic medium + TGF beta 3; for ΔCp, Collagen 2A1 / 2^-ΔΔCp vs saline, Collagen 2A1 / ΔΔCp vs saline, Collagen 2A1 / Mean ΔCp, Collagen 2A1: vs Actin
[2] = test system: TIMP1; assay: Stem cell chondrogenesis, real time PCR gene expression: TIMP1; settings: Day 22; for Mean ΔCp / ΔCp: TIMP1 vs Actin
Description: (§1) • Stem Cells: Bone marrow derived human mesenchymal stem cells: Passage 5 Bone marrow derived human mesenchymal stem cells (HUXMA-01001, Cyagen Biosciences, Sunnyvale Calif.) • Mesenchymal Stem Cell Chondrogenic Differentiation medium (GUXMX-90041, Cyagen Biosciences, Sunnyvale Calif.) • TheraPEAK MSCGM chemically defined Stem cell medium (190632 Lonza) • 1 mM Dexamethasone acetate and mifepristone in absolute ethanol (Sigma) • Saline or 0.9% Sodium chloride for injection ZR Flush (Excelsior Medical, Neptune N.J.) • Sterile filtered 0.6 mM sodium caprylate in saline (sigma) • Sterile filtered 3 mM NAT in saline (sigma); To prepare, heat at 60° C. for 30 minutes then sonicate for 5 minutes. • Sterile filtered 10 mM DADKP in saline • 0.2 μM syringe filters • Hepes buffered saline, Trypsin/EDTA, Trypsin neutralizing solution (Lonza reagent pack) • 182 cm2 tissue culture flasks • pipettes and sterile tips • Tissue culture hood, humidified CO2 incubator, water or bead bath • 24 well tissue culture plates • Qiagen RNeasy plus spin columns (Qiagen 74134) • Qiagen RT2 qPCR primer pairs for Collagen 2A1, MMP13, TIMP1, Aggrecan, GAPDH, and Actin B • Roche Sybr green I master mix and Invitrogen Superscript VILO master mix. • Roche 480 lightcycler
(§2) The following stock drug treatment solutions were prepared in saline for injection and warmed to 37° C. in bath: • 4 μM dexamethasone • 4 μM mifepristone • 3 mM NAT • 0.6 mM caprylate • 80 μM DADKP • Mix of 3 mM NAT, 0.6 mM caprylate, 80 μM DADKP (“Ampion” mix)
(§3) Cyagen Chondrogenic Differentiation medium was prepared by manufacturer protocols but excluding dexamethasone and TGF beta 3 supplements, and warmed to 37° C. in bath.
(§4) The treatment protocol included expanding 5 HUXMA stem cells in 182 cm^2 flasks containing 40 mls TheraPEAK™ MSCGM to 80-90% confluence. Cells were trypsinized from the flasks and a 1.0×10^7 cell suspension of HUXMA stem cells was warmed in Cyagen Chondrogenic Differentiation medium. 20 μl of warmed cell suspension was spotted in the middle of each well of a 24-well tissue culture plate (200,000 cells per spot), and incubated at 37° C. and 5% CO2 for one hour.
(§5) The plates were removed from the incubator and an additional 720 μl chondrogenic medium was added to each well. 250 μl saline, or drug solutions were added to the appropriate wells in triplicate (bringing the final drug dilution to one-quarter of the stock drug treatment solution concentrations). 10 μl of TGF beta 3 solution (supplied by Cyagen) was added to each well, and the plates were returned to the incubator.
(§6) RNA isolation and analysis was conducted for all plates as follows at days 7, 14, and 22 post treatment (with the described medium exchanges). […] Qiagen RNeasy plus lysis buffer (with 2mercaptoethanol) was added to each well and gently shaken for 10 minutes. The lysed cell suspensions from each well were transferred to Qiashredder columns and spun at 14,000 rpm for 2 minutes. RNA isolation proceeded by RNeasy™ plus manufacturer's protocol. RNA was eluted from the Qiagen columns using 25 μl RNase free water.
(§7) cDNA synthesis and real time PCR was conducted as follows. First strand synthesis of cDNA from all samples was performed in 20 μl total volume using 10 μl isolated RNA. All cDNA reactions were then diluted with 30 μl nuclease free water. Real time PCR was then performed using 5 μl diluted cDNA, Roche Syber green master mix, and Qiagen RT^2 gPCR™ primer pairs in 20 μl total reaction volume. Relative gene expression was determined by delta deta Ct method.

[3] = test system: MMP13; assay: Stem cell chondrogenesis, real time PCR gene expression: MMP13; settings: for Mean regulation: vs saline; for Mean ΔCp / ΔCp: MMP13 vs GAPDH
Description: as §1, §2, §3, §4, §5, §6, §7

[4] = test system: Aggrecan; assay: Stem cell chondrogenesis, real time PCR gene expression: Aggrecan; settings: Day 22; for Mean ΔCp / ΔCp: Aggrecan vs Actin; for Cp Agg / Mean regulation: Aggrecan; for Mean regulation: vs saline
Description: as §1, §2, §3, §4, §5, §6, §7

[5] = test system: SOX9; assay: Stem cell chondrogenesis, real time PCR gene expression: SOX9; settings: Day 14
Description: The treatment protocol included expanding 5 HUXMA stem cells in 182 cm^2 flasks containing 40 […] to 80-90% confluence. Cells were trypsinized from the flasks and a 1.0×10^7 cell suspension of HUXMA stem cells was warmed in Cyagen Chondrogenic Differentiation medium. 20 μl of warmed cell suspension was spotted in the middle of each well of a 24-well tissue culture plate (200,000 cells per spot), and incubated at 37° C. and 5% CO2 for one hour. […] Medium exchanges were performed every 3-4 days by aspirating the medium from the wells and replacing with fresh chondrogenic medium, diluted stocks, and TGF beta 3, as described above. […] Medium from the wells was removed and saved for further protein analysis. Qiagen RNeasy plus lysis buffer (with 2mercaptoethanol) was added to each well and gently shaken for 10 minutes. The lysed cell suspensions from each well were transferred to Qiashredder columns and spun at 14,000 rpm for 2 minutes. RNA isolation proceeded by RNeasyTM plus manufacturer's protocol. RNA was eluted from the Qiagen columns using 25 μl RNase free water. cDNA synthesis and real time PCR was conducted as follows. First strand synthesis of cDNA from all samples was performed in 20 μl total volume using 10 μl isolated RNA. All cDNA reactions were then diluted with 30 μl nuclease free water. Real time PCR was then performed using 5 μl diluted cDNA, Roche Syber green master mix, and Qiagen RT^2 gPCRTM primer pairs in 20 μl total reaction volume.

[6] = Day 7, vs Actin, single replicate well
[7] = vs Actin, single replicate well

CC(=O)N[C@@H](Cc1c[nH]c2ccccc12)C(=O)O [NAT, N-acetyl-tryptophan]
Cp Coll ([1]; Table 12): 24.2 and 23.63 and 24.67
Cp Coll ([1]; Table 16): 24.2 and 23.63 and 24.67
Mean regulation ([1]; Table 12): 262.94
Mean regulation ([1]; Table 16): 262.94
Mean ΔCp ([1]; Table 12): 5.207
ΔCp ([1]; Table 12): 4.75 and 4.87 and 6
Mean ΔCp ([1]; Table 16): 5.207
ΔCp ([1]; Table 16): 4.75 and 4.87 and 6
regulation, Collagen 2A1 ([1]; Day 7): −1.40 and 1.01 and −1.43
Mean regulation, Collagen 2A1 ([1]; Day 7): −0.61
ΔCp, Collagen 2A1 ([1]; Day 7): 7.22 and 6.72 and 7.25
2^-ΔΔCp vs saline, Collagen 2A1 ([1]; Day 7): 0.7137 and 1.0093 and 0.699
ΔΔCp vs saline, Collagen 2A1 ([1]; Day 7): 0.487 and −0.01 and 0.517
Mean ΔCp, Collagen 2A1 ([1]; Day 7): 7.063
regulation, Collagen 2A1 ([1]; Day 14): −3.42 and 7.09 and 7.76
Mean regulation, Collagen 2A1 ([1]; Day 14): 3.81
ΔCp, Collagen 2A1 ([1]; Day 14): 12.83 and 8.23 and 8.1
2^-ΔΔCp vs saline, Collagen 2A1 ([1]; Day 14): 0.2925 and 7.0943 and 7.7633
ΔΔCp vs saline, Collagen 2A1 ([1]; Day 14): 1.773 and −2.83 and −2.96
Mean ΔCp, Collagen 2A1 ([1]; Day 14): 9.72
Cp TIMP1 ([2]; TIMP1, Table 12): 20.59 and 21.28 and 20.57
2-^ΔΔCp vs saline ([2]; TIMP1, Table 16): 1.2894 and 1.1225 and 1.1147
Cp TIMP1 ([2]; TIMP1, Table 16): 20.59 and 21.28 and 20.57
Mean regulation ([2]; TIMP1, vs saline, Table 12): 1.18
regulation ([2]; TIMP1, vs saline, Table 12): 1.29 and 1.12 and 1.11
regulation ([2]; TIMP1, vs saline, Table 16): 1.29 and 1.12 and 1.11
Mean ΔCp ([2]; Table 12): 3.537
ΔCp ([2]; Table 12): 3.4 and 3.6 and 3.61
Mean ΔCp ([2]; Table 16): 3.537
ΔCp ([2]; Table 16): 3.4 and 3.6 and 3.61
regulation, MMP13 ([3]; Day 7, fold regulation vs saline, single replicate well): −1.43 and −1.81 and −2.45
Mean regulation, MMP13 ([3]; Day 7, fold regulation vs saline, triplicate wells): −1.89
ΔCp, MMP13 ([3]; Day 7, human bone marrow MSC, chondrogenic medium + TGF beta 3, vs Actin, single replicate well): 5.15 and 5.49 and 5.93
2^-ΔΔCp vs saline, MMP13 [3, 6]: 0.7006 and 0.5535 and 0.408
ΔΔCp vs saline, MMP13 [3, 6]: 0.513 and 0.853 and 1.293
Mean ΔCp, MMP13 ([3]; Day 7, vs Actin, triplicate wells): 5.523
Cp, MMP13 ([3]; MMP13, Day 22, Table 12): 22.68 and 21.71 and 21.65
2^-ΔΔCp vs saline ([3]; MMP13, Day 22, Table 16): 0.8487 and 1.0305 and 1.0093
Cp, MMP13 ([3]; MMP13, Day 22, Table 16): 22.68 and 21.71 and 21.65
Mean regulation ([3]; MMP13, Day 22, Table 12): 0.29
Mean regulation ([3]; MMP13, Day 22, Table 16): 0.29
Mean ΔCp ([3]; Day 22, Table 12): 3.053
ΔCp ([3]; Day 22, Table 12): 3.23 and 2.95 and 2.98
Mean ΔCp ([3]; Day 22, Table 16): 3.053
ΔCp ([3]; Day 22, Table 16): 3.23 and 2.95 and 2.98
Mean ΔCp ([4]; Table 12): 7.1
ΔCp ([4]; Table 12): 8.24 and 5.62 and 7.44
Mean ΔCp ([4]; Table 16): 7.1
ΔCp ([4]; Table 16): 8.24 and 5.62 and 7.44
Cp Agg ([4]; Table 12): 25.43 and 23.3 and 24.4
Cp Agg ([4]; Table 16): 25.43 and 23.3 and 24.4
Mean regulation ([4]; Table 12): 11.66
Mean regulation ([4]; Table 16): 11.66
regulation, SOX9 ([5]; fold regulation vs saline, single replicate well): −2.30 and 2.11 and 2.04
Mean regulation, SOX9 ([5]; fold regulation vs saline, triplicate wells): 0.62
ΔCp, SOX9 ([5]; human bone marrow MSC, chondrogenic medium + TGF beta 3, vs Actin, single replicate well): 8.38 and 6.1 and 6.15
2^-ΔΔCp vs saline, SOX9 [5, 7]: 0.4353 and 2.114 and 2.042
ΔΔCp vs saline, SOX9 [5, 7]: 1.2 and −1.08 and −1.03
Mean ΔCp, SOX9 ([5]; vs Actin, triplicate wells): 6.877
